{"source": "patent US9950992B2", "about": "“Water soluble haloanilide calcium-release calcium channel inhibitory compounds and methods to control bone erosion and inflammation associated with arthritides” (West Virginia University, priority 2016, dated 2018)", "key": {"TRPM4": {"target": "TRPM4 (Homo sapiens, UniProt Q8TD43)", "sequence (Q8TD43 whole entry, species assumed)": "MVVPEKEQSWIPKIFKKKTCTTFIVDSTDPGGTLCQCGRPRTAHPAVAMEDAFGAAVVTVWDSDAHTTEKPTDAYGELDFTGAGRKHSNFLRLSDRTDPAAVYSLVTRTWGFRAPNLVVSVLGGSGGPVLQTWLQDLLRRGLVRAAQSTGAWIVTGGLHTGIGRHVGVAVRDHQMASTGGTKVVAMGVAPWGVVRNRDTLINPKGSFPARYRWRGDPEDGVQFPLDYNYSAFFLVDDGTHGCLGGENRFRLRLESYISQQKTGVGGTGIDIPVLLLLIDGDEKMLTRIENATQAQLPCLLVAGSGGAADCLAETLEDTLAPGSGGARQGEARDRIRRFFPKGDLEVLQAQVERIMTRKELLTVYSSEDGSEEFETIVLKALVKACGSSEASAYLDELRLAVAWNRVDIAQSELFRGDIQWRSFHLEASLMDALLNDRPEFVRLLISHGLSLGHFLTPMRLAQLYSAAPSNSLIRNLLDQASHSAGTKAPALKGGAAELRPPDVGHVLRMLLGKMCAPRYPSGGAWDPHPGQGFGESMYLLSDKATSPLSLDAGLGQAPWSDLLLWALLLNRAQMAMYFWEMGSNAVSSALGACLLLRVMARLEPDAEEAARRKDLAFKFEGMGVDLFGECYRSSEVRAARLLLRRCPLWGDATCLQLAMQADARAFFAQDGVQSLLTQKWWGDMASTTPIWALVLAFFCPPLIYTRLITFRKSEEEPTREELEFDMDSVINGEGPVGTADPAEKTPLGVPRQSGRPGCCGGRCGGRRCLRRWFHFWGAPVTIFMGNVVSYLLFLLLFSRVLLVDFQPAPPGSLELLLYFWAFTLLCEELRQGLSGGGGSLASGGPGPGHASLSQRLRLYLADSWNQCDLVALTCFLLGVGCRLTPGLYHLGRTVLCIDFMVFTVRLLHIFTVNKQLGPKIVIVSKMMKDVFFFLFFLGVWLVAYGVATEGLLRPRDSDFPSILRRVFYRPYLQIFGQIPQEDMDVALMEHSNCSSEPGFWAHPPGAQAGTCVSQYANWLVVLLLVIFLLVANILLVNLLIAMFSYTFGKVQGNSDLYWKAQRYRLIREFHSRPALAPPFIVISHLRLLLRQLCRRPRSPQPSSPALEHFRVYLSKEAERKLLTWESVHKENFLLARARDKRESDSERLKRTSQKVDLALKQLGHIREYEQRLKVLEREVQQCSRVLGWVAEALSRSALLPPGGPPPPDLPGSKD", "settings": "cited from earlier work"}, "CIA": {"test_system": "CIA", "settings": "10 mg/kg, cited from earlier work"}, "[1]": {"experiment": "Water solubility / hydrophobicity", "type": "physicochemical"}, "OCL formation": {"test_system": "OCL formation", "experiment": "OCL (osteoclast) formation assay", "type": "cell-based"}, "[2]": {"test_system": "osteoclasts and CD3 T cells in tissue sections", "experiment": "Antibody labeling of sections (anti-ATPa3/TCIRG osteoclasts, anti-CD3 T cells) in CIA mice", "type": "in vivo, mouse", "settings": "high dose CIA/DCPA relative to CIA/placebo", "procedure": "Antibodies used were, for TCIRGI, mouse monoclonal (clone 6H3) antibody (Sigma-Aldrich) at 1:100 dilution. For CD3, anti-CD3 mouse monoclonal antibody (PC3/188A) against synthetic peptide spanning amino acids 156-168 of the cytoplasmic domain of human CD3-ε chain was used, at 1:100 dilution. Briefly, sections were blocked in PBS with 2% hydrogen peroxide for 5 minutes and then in PBS with 2% BSA for two hours, then reacted overnight with antibodies at indicated concentrations in PBS with 0.01% tween 20, and after washing with biotinylated anti-mouse at 1:1000 dilution. Then streptavidin-horseradish peroxidase, and diaminobenzidine substrate were added. Hematoxylin and eosin counterstain was use to show tissue features. Imaging used a Nikon TE2000 inverted microscope, with 14-bit 2048×2048 pixel monochrome CCD and RGB filters to reconstruct color (Spot, Sterling Heights, Mich.)."}, "[3]": {"test_system": "serum inflammatory cytokines", "experiment": "Serum analysis for cytokines in CIA mice (V-PLEX panels)", "type": "in vivo, mouse", "procedure": "Heart blood at sacrifice, 40 days, was used for analysis. Plasma was separated by centrifiigation and frozen in aliquots at −20° C. until used. Production of anti-CII antibodies was evaluated by ELISA (Rheumera, Astarte Biologies, Redmond, Wash.). Production of cytokines was evaluated using V-PLEX panels in 96-well plates (Meso Scale Discovery, Rockville, Md.)."}, "[4]": {"test_system": "collagen-induced arthritis (CIA)", "experiment": "Micro-computed tomography and morphometry of paws in CIA mice", "type": "in vivo, mouse", "settings": "high dose CIA/DCPA (21 mg)", "procedure": "Analysis by micro-computed tomography was as described (14). In brief, paws fixed in Millonig's solution were scanned on a Viva CT40 instrument (Scanco, Bassersdorf, Switzerland) with three-dimensional reconstruction by the manufacturer's instrument-specific software. The scan section increment was 20 μm; 3-D reconstruction used a density cutoff of 211 mg/cm^3. Analysis of trabecular thickness and trabecular spacing used the plate model."}, "[5]": {"test_system": "collagen-induced arthritis (CIA)", "experiment": "Collagen-induced arthritis (CIA) in mice, blinded arthritic index and paw swelling", "type": "in vivo, mouse", "settings": "DCPA 21 mg/kg/day", "quoted_text": "Effects on swelling, inflammatory cell invasion in joints, serum cytokines and bone erosion were measured.\nMale DBA/1 mice were used, from Harlan Laboratories, Frederick Md. […] Briefly, type II collagen (CII) was injected in complete Freund's adjuvant at 100 μg per animal (˜4 μg/kg) at day 1 and, after 21 days, a booster dose of 100 μg C II in Freund's incomplete adjuvant. […] Mice were monitored for arthritis and scored in a blinded manner. Swelling of paws was be graded on scale from 0 to 4 indicating number of swollen digits. All paws were evaluated, so that the maximal arthritic index per mouse was 16. Additionally, hind paw swelling was measured using digital calipers on day 0, and each day on days 23-40. Analysis of the bones and joints for arthritis was done on H&E stained sections of hind paws, by blinded observation. This scored synovial expansion and inflammation, joint damage including pannus, and bone degradation, each on a scale of 0-3, with maximum score of 9."}, "[6]": {"experiment": "General health of treated CIA mice (weight, activity)", "type": "in vivo, mouse", "settings": "about three weeks of DCPA", "quoted_text": "Male DBA/1 mice were used, from Harlan Laboratories, Frederick Md. […] Briefly, type II collagen (CII) was injected in complete Freund's adjuvant at 100 μg per animal (˜4 μg/kg) at day 1 and, after 21 days, a booster dose of 100 μg C II in Freund's incomplete adjuvant. Inflammation was apparent 4-8 days after the second dose, in 80% of treated joints. […] Mice were monitored for arthritis and scored in a blinded manner. Swelling of paws was be graded on scale from 0 to 4 indicating number of swollen digits. All paws were evaluated, so that the maximal arthritic index per mouse was 16. Additionally, hind paw swelling was measured using digital calipers on day 0, and each day on days 23-40. Analysis of the bones and joints for arthritis was done on H&E stained sections of hind paws, by blinded observation. This scored synovial expansion and inflammation, joint damage including pannus, and bone degradation, each on a scale of 0-3, with maximum score of 9. […] For histological analysis, two paws from each animal were analyzed separately and blindly, and are calculated as two specimens per animal; however, if averages are used with n=animal number, there was no effect on differences (not shown)."}, "[7]": {"target": "CRAC channel (STIM1/Orail) (Homo sapiens, UniProt Q96D31)", "sequence (Q96D31 whole entry)": "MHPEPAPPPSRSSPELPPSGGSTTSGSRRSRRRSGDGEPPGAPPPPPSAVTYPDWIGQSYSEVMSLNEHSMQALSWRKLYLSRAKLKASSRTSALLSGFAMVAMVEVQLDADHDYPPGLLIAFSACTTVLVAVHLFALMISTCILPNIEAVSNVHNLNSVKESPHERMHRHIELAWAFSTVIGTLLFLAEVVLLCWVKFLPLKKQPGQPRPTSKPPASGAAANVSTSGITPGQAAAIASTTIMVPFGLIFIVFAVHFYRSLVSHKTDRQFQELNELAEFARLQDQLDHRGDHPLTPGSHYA", "settings": "by destabilizing STIM1/Orail interaction; Zhou et al., 2011; cited from earlier work"}, "[8]": {"test_system": "human or murine osteoclasts", "settings": "earlier study (ref 5), cited from earlier work"}, "[9]": {"test_system": "collagen-induced arthritis (CIA)", "experiment": "Histology of H&E stained hind paw sections in CIA mice, blinded score", "type": "in vivo, mouse", "quoted_text": "Male DBA/1 mice were used, from Harlan Laboratories, Frederick Md. […] Briefly, type II collagen (CII) was injected in complete Freund's adjuvant at 100 μg per animal (˜4 μg/kg) at day 1 and, after 21 days, a booster dose of 100 μg C II in Freund's incomplete adjuvant. […] Mice were monitored for arthritis and scored in a blinded manner. Swelling of paws was be graded on scale from 0 to 4 indicating number of swollen digits. All paws were evaluated, so that the maximal arthritic index per mouse was 16. Additionally, hind paw swelling was measured using digital calipers on day 0, and each day on days 23-40. Analysis of the bones and joints for arthritis was done on H&E stained sections of hind paws, by blinded observation. This scored synovial expansion and inflammation, joint damage including pannus, and bone degradation, each on a scale of 0-3, with maximum score of 9. […] For histological analysis, two paws from each animal were analyzed separately and blindly, and are calculated as two specimens per animal; however, if averages are used with n=animal number, there was no effect on differences (not shown).\nHind paws of animals were decalcified, paraffin embedded, cut, and stained with hematoxylin and eosin (FIGS. 2A-C). […] Therefore, blinded qualitative grading was used. […]"}, "[10]": {"settings": "humans, cited from earlier work"}}, "note": "Entries after “also recorded” stand apart in the source; their conditions may differ. Read-outs that look alike come from different tables or passages of the source."}
{"compound": "Cc1nnsc1C(=O)Nc1ccc(-n2nc(C(F)(F)F)cc2C(F)(F)F)cc1", "note": "[BTP-2, 4-methy-4-[3,5-bis(trifluorometliyl)-1H-pyrazol-1-yl]-1,2,3-thiadiazole-5-carboxanilide]", "values": [{"measurement": "concentration suppressing cytokines including 1L2 and calcium influx by TRPM4", "setting": "TRPM4", "result": "low nanomolar concentrations"}, {"measurement": "inflammatory cytokines IL1, IL6 and TNF-α", "setting": "CIA; 10 days after induction", "result": "near-baseline levels"}, {"measurement": "effect on CIA", "setting": "CIA", "result": "suppressed CIA"}]}
{"compound": "O=C(O)CC(=O)Nc1ccc(Cl)c(Cl)c1", "note": "[DCOPA, 3-(3,4-dichloroanilino)-3-oxopropanoic acid]", "values": [{"measurement": "water solubility compared with DCPA", "setting": "[1]", "result": "more water soluble compound than DCPA"}]}
{"compound": "N-methyl-DCPA [N-MeDCPA]", "values": [{"measurement": "hydrophobicity", "setting": "[1]", "result": "very hydrophobic"}, {"measurement": "toxicity compared with DCPA", "setting": "OCL formation; OCL assay findings", "result": "less toxic than DCPA"}, {"measurement": "effect in OCL assay compared with DCPA", "setting": "OCL formation; same doses as DCPA, took longer", "result": "looked as good as DCPA"}]}
{"compound": "CN(C(=O)CC(=O)O)c1ccc(Cl)c(Cl)c1", "note": "[N-MeDCOPA]", "values": [{"measurement": "inhibition of OCL formation", "setting": "OCL formation; 100 μM", "result": "shows inhibition of OCL formation"}]}
{"compound": "CCC(=O)Nc1ccc(Cl)c(Cl)c1", "note": "[DCPA, N-(3,4-dichlorophenyl)propanamide]", "values": [{"measurement": "osteoclast surface area (ATPa3 labeling)", "setting": "[2]", "result": "large and statistically significant reduction"}, {"measurement": "effect on serum cytokines (TNF-α, IL-1, IL-6, CXCL1, IFN-γ)", "setting": "[3]; DCPA 21 mg/kg/day, day 40 serum, vs CIA/placebo", "result": "no effect; also recorded: did not affect"}, {"measurement": "effect on cytokine production of IL-12p70 or IL-10", "setting": "[3]; DCPA, serum of CIA mice", "result": "did not significantly affect"}, {"measurement": "bone volume/total volume by micro-CT", "setting": "[4]; p=0.03 vs CIA/placebo", "result": "statistically greater than CIA/placebo animals"}, {"measurement": "bone density by micro-CT", "setting": "[4]; sacrifice day 40", "result": "indistinguishable from untreated controls"}, {"measurement": "overall swelling of joints", "setting": "[5]", "result": "reduced by a similar amount"}, {"measurement": "time of maximal effect after collagen booster", "setting": "[5]", "result": "12 to 17", "unit": "days"}, {"measurement": "adverse effects on animal weight or activity", "setting": "[6]", "result": "no adverse effects"}, {"measurement": "CRAC channel activation", "setting": "[7]", "result": "inhibits CRAC channel activation"}, {"measurement": "osteoclast differentiation / formation in vitro", "setting": "[8]", "result": "inhibits osteoclast formation in vitro"}, {"measurement": "osteoclast differentiation / formation in vitro", "setting": "[8]; listed as 3,4-dichloropropionaniline", "result": "reduced differentiation of bone degrading osteoclasts"}, {"measurement": "reduction of bone and cartilage damage in sections of animal feet", "setting": "[9]; DCPA 21 mg/kg/day", "result": "−50", "unit": "%"}, {"measurement": "histological damage score", "setting": "[9]; ankle bone of one animal, high dose CIA/DCPA (21 mg DCPA), 40 days, scale 0-9", "result": 4}, {"measurement": "toxicity of intermittent exposure in mg/kg quantities", "setting": "[10]", "result": "minimal apparent toxicity"}, {"measurement": "dose that can cause fatal methemoglobinemia", "setting": "[10]; massive doses", "result": "4000 to 5000", "unit": "mg/kg"}]}
